Measurements published in US7402548B2, “Benzoxazole compounds, process for producing the same and herbicides” (Kyoyu Agri Co., Ltd., priority 2000, dated 2008).

Columns and labels:
corn [1] = assay: Soil treatment test for upland field; assay type: in vivo; parameters: key: 0 = normal development, 5 = all killed; conditions: 500 g/ha, 3 weeks, glass house 25° C.
Protocol: (§1) The herbicidal effects are evaluated according to the following 6 ranks as compared with non-treated district. (0: normal development, 1: Less damaged, 2: Slightly damaged, 3: Moderately damaged, 4: Severely damaged, 5: All killed). Incidentally, “-” in the column means not investigated.
(§2) Wagner pots, each having an area of 1/5000 are, were packed with Ube soil (alluvial soil), and then each seed of corn, soybean, cotton, wheat, solgum, sugar beat, Large crabgrass, barnyard grass, green foxtail, blackgrass, annual bluegrass, common lambsquarters, livid amaranth, velvetleaf, morning glory, common Cocklebur (Xanthium strumarium) and sicklepod (Cassia obtusifolia) were planted and covered with soil.
(§3) Each wettable powder of the desired compounds (I) shown in Tables 1 to 21, 24, 25, 28 and 29 prepared in accordance with Example 2 was diluted with water containing a surfactant (0.05%) and uniformly sprayed on the surface of each soil so that an effective concentration of the compound (I) in each herbicide became 500 g/ha.
(§4) These plants were controlled in a glass house at an average temperature of 25° C. for 3 weeks, and then herbicidal effects thereof were investigated.
(§5) The herbicidal effects were evaluated according to the evaluation method described in the above (1).

soybean [2] = assay: Soil treatment test for upland field; assay type: in vivo; parameters: key: 0 = normal development, 5 = all killed; conditions: 500 g/ha, 3 weeks, glass house 25° C.
Protocol: as §1, §2, §3, §4, §5

wheat [3] = assay: Soil treatment test for upland field; assay type: in vivo; parameters: key: 0 = normal development, 5 = all killed; conditions: 500 g/ha, 3 weeks, glass house 25° C.
Protocol: as §1, §2, §3, §4, §5

Large crabgrass [4] = assay: Soil treatment test for upland field; assay type: in vivo, Digitaria adscendens; parameters: key: 0 = normal development, 5 = all killed; conditions: 500 g/ha, 3 weeks, glass house 25° C.
Protocol: as §1, §2, §3, §4, §5

barnyard grass = assay: Soil treatment test for upland field; assay type: in vivo, Eschinochloa crusgalli; parameters: key: 0 = normal development, 5 = all killed; conditions: 500 g/ha, 3 weeks, glass house 25° C.
Protocol: as §1, §2, §3, §4, §5

green foxtail [5] = assay: Soil treatment test for upland field; assay type: in vivo, Setaria viridis; parameters: key: 0 = normal development, 5 = all killed; conditions: 500 g/ha, 3 weeks, glass house 25° C.
Protocol: as §1, §2, §3, §4, §5

annual bluegrass [6] = assay: Soil treatment test for upland field; assay type: in vivo, Poa annua; parameters: key: 0 = normal development, 5 = all killed; conditions: 500 g/ha, 3 weeks, glass house 25° C.
Protocol: as §1, §2, §3, §4, §5

common lambsquarters [7] = assay: Soil treatment test for upland field; assay type: in vivo, Chenopodium album; parameters: key: 0 = normal development, 5 = all killed; conditions: 500 g/ha, 3 weeks, glass house 25° C.
Protocol: as §1, §2, §3, §4, §5

livid amaranth [8] = assay: Soil treatment test for upland field; assay type: in vivo, Amaranthus lividus; parameters: key: 0 = normal development, 5 = all killed; conditions: 500 g/ha, 3 weeks, glass house 25° C.
Protocol: as §1, §2, §3, §4, §5

wheat [9] = assay: Foliar spread test for upland field; assay type: in vivo; parameters: key: 0 = normal development, 5 = all killed (6 ranks vs. untreated); conditions: foliar spray, 500 ppm, 3 weeks, glass house 25° C.
Protocol: as §1
(§6) Wagner pots, each having an area of 1/5000 are, were packed with volcanic ash soil and then each seed of corn, soybean, cotton, wheat, solgum, sugar beat, Large crabgrass, barnyardgrjass, green foxtail, blackgrass, annual bluegrass, common lambsquarters, livid amaranth, velvetleaf, morning glory, Xanthium pensylvanicum and Cassia obtusifolia was planted, covered with soil and grown in a glass house at an average temperature of 25° C. for about 2 weeks.
(§7) Each wettable powder of the desired compounds (I) shown in Tables 1 to 21, 24, 25, 28 and 29 prepared in accordance with Example 2 was diluted to 500 ppm with water containing a surfactant (0.5%) and then uniformly sprayed on the above respective plants.
(§8) After these plants were controlled in a glass house at an average temperature of 25° C. for 3 weeks, the herbicidal effects thereof were investigated.
as §5

Large crabgrass [10] = assay: Foliar spread test for upland field; assay type: in vivo, Digitaria adscendens; parameters: key: 0 = normal development, 5 = all killed (6 ranks vs. untreated); conditions: foliar spray, 500 ppm, 3 weeks, glass house 25° C.
Protocol: as §1, §6, §7, §8, §5

green foxtail [11] = assay: Foliar spread test for upland field; assay type: in vivo, Setaria viridis; parameters: key: 0 = normal development, 5 = all killed (6 ranks vs. untreated); conditions: foliar spray, 500 ppm, 3 weeks, glass house 25° C.
Protocol: as §1, §6, §7, §8, §5

common lambsquarters [12] = assay: Foliar spread test for upland field; assay type: in vivo, Chenopodium album; parameters: key: 0 = normal development, 5 = all killed (6 ranks vs. untreated); conditions: foliar spray, 500 ppm, 3 weeks, glass house 25° C.
Protocol: as §1, §6, §7, §8, §5

livid amaranth [13] = assay: Foliar spread test for upland field; assay type: in vivo, Amaranthus lividus; parameters: key: 0 = normal development, 5 = all killed (6 ranks vs. untreated); conditions: foliar spray, 500 ppm, 3 weeks, glass house 25° C.
Protocol: as §1, §6, §7, §8, §5

corn [14] = assay: Foliar spread test for upland field; assay type: in vivo; parameters: key: 0 = normal development, 5 = all killed (6 ranks vs. untreated); conditions: foliar spray, 500 ppm, 3 weeks, glass house 25° C.
Protocol: as §1, §6, §7, §8, §5

solgum [15] = assay: Soil treatment test for upland field; assay type: in vivo; parameters: key: 0 = normal development, 5 = all killed; conditions: 500 g/ha, 3 weeks, glass house 25° C.
Protocol: as §1, §2, §3, §4, §5

sugar beat [16] = assay: Soil treatment test for upland field; assay type: in vivo; parameters: key: 0 = normal development, 5 = all killed; conditions: 500 g/ha, 3 weeks, glass house 25° C.
Protocol: as §1, §2, §3, §4, §5

blackgrass [17] = assay: Soil treatment test for upland field; assay type: in vivo, Alopecurus aegualis; parameters: key: 0 = normal development, 5 = all killed; conditions: 500 g/ha, 3 weeks, glass house 25° C.
Protocol: as §1, §2, §3, §4, §5

velvetleaf [18] = assay: Soil treatment test for upland field; assay type: in vivo, Abutilon theophrasti; parameters: key: 0 = normal development, 5 = all killed; conditions: 500 g/ha, 3 weeks, glass house 25° C.
Protocol: as §1, §2, §3, §4, §5

morning glory [19] = assay: Soil treatment test for upland field; assay type: in vivo, Ipomoea spps.; parameters: key: 0 = normal development, 5 = all killed; conditions: 500 g/ha, 3 weeks, glass house 25° C.
Protocol: as §1, §2, §3, §4, §5

cotton = assay: Foliar spread test for upland field; assay type: in vivo; parameters: key: 0 = normal development, 5 = all killed (6 ranks vs. untreated); conditions: foliar spray, 500 ppm, 3 weeks, glass house 25° C.
Protocol: as §1, §6, §7, §8, §5

solgum [20] = assay: Foliar spread test for upland field; assay type: in vivo; parameters: key: 0 = normal development, 5 = all killed (6 ranks vs. untreated); conditions: foliar spray, 500 ppm, 3 weeks, glass house 25° C.
Protocol: as §1, §6, §7, §8, §5

soybean [21] = assay: Foliar spread test for upland field; assay type: in vivo; parameters: key: 0 = normal development, 5 = all killed (6 ranks vs. untreated); conditions: foliar spray, 500 ppm, 3 weeks, glass house 25° C.
Protocol: as §1, §6, §7, §8, §5

sugar beat [22] = assay: Foliar spread test for upland field; assay type: in vivo; parameters: key: 0 = normal development, 5 = all killed (6 ranks vs. untreated); conditions: foliar spray, 500 ppm, 3 weeks, glass house 25° C.
Protocol: as §1, §6, §7, §8, §5

barnyardgrjass = assay: Foliar spread test for upland field; assay type: in vivo, Eschinochloa crusgalli; parameters: key: 0 = normal development, 5 = all killed (6 ranks vs. untreated); conditions: foliar spray, 500 ppm, 3 weeks, glass house 25° C.
Protocol: as §1, §6, §7, §8, §5

blackgrass [23] = assay: Foliar spread test for upland field; assay type: in vivo, Alopecurus aegualis; parameters: key: 0 = normal development, 5 = all killed (6 ranks vs. untreated); conditions: foliar spray, 500 ppm, 3 weeks, glass house 25° C.
Protocol: as §1, §6, §7, §8, §5

annual bluegrass [24] = assay: Foliar spread test for upland field; assay type: in vivo, Poa annua; parameters: key: 0 = normal development, 5 = all killed (6 ranks vs. untreated); conditions: foliar spray, 500 ppm, 3 weeks, glass house 25° C.
Protocol: as §1, §6, §7, §8, §5

velvetleaf [25] = assay: Foliar spread test for upland field; assay type: in vivo, Abutilon theophrasti; parameters: key: 0 = normal development, 5 = all killed (6 ranks vs. untreated); conditions: foliar spray, 500 ppm, 3 weeks, glass house 25° C.
Protocol: as §1, §6, §7, §8, §5

morning glory [26] = assay: Foliar spread test for upland field; assay type: in vivo, Ipomoea spps.; parameters: key: 0 = normal development, 5 = all killed (6 ranks vs. untreated); conditions: foliar spray, 500 ppm, 3 weeks, glass house 25° C.
Protocol: as §1, §6, §7, §8, §5

Row | SMILES | Effects Corn (corn [1]) | Effects Wheat (wheat [3]) | Effects Large crabgrass (Large crabgrass [4]) | Effects Barnyardgrass (barnyard grass) | Effects Green foxtail (green foxtail [5]) | Effects Annual bluegrass (annual bluegrass [6]) | Effects Common lambsquarters (common lambsquarters [7]) | Effects Livid amaranth (livid amaranth [8]) | Effects Wheat (wheat [9]) | Effects Large crabgrass (Large crabgrass [10]) | Effects Green foxtail (green foxtail [11]) | Effects Common lambsquarters (common lambsquarters [12]) | Effects Livid amaranth (livid amaranth [13]) | Effects Corn (corn [14]) | Effects Solgum (solgum [15]) | Effects Sugar beat (sugar beat [16]) | Effects Blackgrass (blackgrass [17]) | Effects Velvetleaf (velvetleaf [18]) | Effects Morning glory (morning glory [19]) | Effects Sotton (cotton) | also measured
1 | CCC(Oc1cc(C(F)(F)F)on1)c1nc2cc(C#N)c(F)cc2o1 (centres unmarked) [I-e-40, 1-(5-cyano-6-fluorobenzoxazol-2-yl)-1-(5-trifluoromethylisoxazol-3-yloxy)propane] | 1 | 0 | 5 | 5 | 5 | 5 | 5 | 5 | 2 | 4 | 4 | 5 | 5 |  |  |  |  |  |  |  | Effects Soybean (soybean [2]): 2
2 | CCC(Oc1cc(C(F)(F)F)nn1C)c1nc2cc(Cl)ccc2o1 (centres unmarked) [Compound 1-e-2] | 0 | 0 | 3 |  | 3 | 3 | 2 | 5 | 1 |  | 2 | 3 | 4 | 1 |  |  |  |  |  |  | Effects Soybean (soybean [2]): 0
3 | CCC(=Cc1cccc(C(F)(F)F)c1)c1nc2ccc([N+](=O)[O-])cc2o1 [I-c-15] | 1 | 1 | 5 | 4 | 5 | 5 | 5 | 5 | 2 | 4 | 4 | 5 | 5 | 2 | 1 | 2 | 5 | 2 | 2 | 3 | Effects Solgum (solgum [20]): 2; Effects Soybean (soybean [21]): 5; Effects Sugar beat (sugar beat [22]): 4; Effects Barnyardgrass (barnyardgrjass): 3; Effects Blackgrass (blackgrass [23]): 3; Effects Annual bluegrass (annual bluegrass [24]): 4; Effects Velvetleaf (velvetleaf [25]): 3; Effects Morning glory (morning glory [26]): 5
4 | CCCC(Oc1cc(C)nc(SC)n1)c1nc2cc(C#N)c(F)cc2o1 (centres unmarked) [Compound 1-e-65] | 0 | 0 | 4 |  | 4 |  | 2 | 5 |  |  |  |  |  |  |  |  |  |  |  |  | Effects Soybean (soybean [2]): 0
5 | CCCC(=Cc1cccc(C(F)(F)F)c1)c1nc2cc(C#N)ccc2o1 [I-c-83] | 2 | 1 | 5 | 4 | 5 | 5 | 5 | 5 | 2 | 4 | 5 | 5 | 5 | 3 | 1 | 5 | 5 | 5 | 5 | 5 | Effects Solgum (solgum [20]): 3; Effects Soybean (soybean [21]): 4; Effects Sugar beat (sugar beat [22]): 5; Effects Barnyardgrass (barnyardgrjass): 2; Effects Blackgrass (blackgrass [23]): 4; Effects Annual bluegrass (annual bluegrass [24]): 4; Effects Velvetleaf (velvetleaf [25]): 4; Effects Morning glory (morning glory [26]): 5
6 | CC(=Cc1cccc(C(F)(F)F)c1)c1nc2cc(C#N)c(Cl)cc2o1 [I-c-141] | 0 | 0 | 5 | 4 | 5 | 5 | 5 | 5 | 1 | 3 | 5 | 5 | 5 | 2 | 0 | 5 | 4 | 5 | 5 | 5 | Effects Solgum (solgum [20]): 1; Effects Soybean (soybean [21]): 3; Effects Sugar beat (sugar beat [22]): 5; Effects Barnyardgrass (barnyardgrjass): 1; Effects Blackgrass (blackgrass [23]): 1; Effects Annual bluegrass (annual bluegrass [24]): 3; Effects Velvetleaf (velvetleaf [25]): 4; Effects Morning glory (morning glory [26]): 5
7 | CCC(=Cc1cccc(C(F)(F)F)c1)c1nc2cc(Br)ccc2o1 [I-c-67] | 2 | 1 | 5 | 5 | 5 | 5 | 5 | 5 | 2 | 4 | 4 | 5 | 5 | 3 | 5 | 5 | 5 | 5 | 4 | 5 | Effects Solgum (solgum [20]): 3; Effects Soybean (soybean [21]): 5; Effects Sugar beat (sugar beat [22]): 4; Effects Barnyardgrass (barnyardgrjass): 3; Effects Blackgrass (blackgrass [23]): 4; Effects Annual bluegrass (annual bluegrass [24]): 4; Effects Velvetleaf (velvetleaf [25]): 4; Effects Morning glory (morning glory [26]): 5
